Test results as given in publication PMC6171417, “Carbonic anhydrase inhibition with a series of novel benzenesulfonamide-triazole conjugates” (Journal of Enzyme Inhibition and Medicinal Chemistry, 2018).

Tests used:
Experiment in all cases: cells
Parameters in all cases: species or system NCI human tumour cell line panel; NCI one-dose anti-proliferative screen, human tumour cell line panel, growth inhibition percent (GI%)
NCI-H322M = settings: Homo sapiens, NCI-H322M; growth inhibition (GI%), single dose
Protocol: (§1) Ten of the newly synthesised 1,2,3-triazolo benzenesulfonamide derivatives were selected by NCI (Bethesda, MD) for evaluating their anti-proliferative activity. The selected compounds were subjected to a primary in vitro one-dose ([…]) anti-proliferative assay against 57 human tumour cell lines following the previously reported method[30] and their obtained growth inhibition percent (GI%) are presented in Table 2. A subset of ten triazolo-benzenesulfonamides (3, 5, 6, 7, 9, 11, 16–18, and 20) were selected and subjected to an in vitro anti-proliferative screening against a panel of 57 cancer cell lines at NCI at an initial high dose ([…]). The human cell lines used were derived from nine cancer types: leukaemia, lung, colon, CNS, melanoma, ovarian, renal, prostate and breast cancers.

SK-OV-3 = settings: Homo sapiens, SK-OV-3; growth inhibition (GI%), single dose
Protocol: as §1

RPMI-8226 = settings: Homo sapiens, RPMI-8226; growth inhibition (GI%), single dose
Protocol: as §1

UO-31 = settings: Homo sapiens, UO-31; growth inhibition (GI%), single dose
Protocol: as §1

LOX IMVI = settings: Homo sapiens, LOX IMVI; growth inhibition (GI%), single dose
Protocol: as §1

SNB-19 = settings: Homo sapiens, SNB-19; growth inhibition (GI%), single dose
Protocol: as §1

HS 578T = settings: Homo sapiens, Hs-578T; growth inhibition (GI%), single dose
Protocol: as §1

T-47D = settings: Homo sapiens, T47D; growth inhibition (GI%), single dose
Protocol: as §1

MOLT-4 = settings: Homo sapiens, MOLT-4; growth inhibition (GI%), single dose
Protocol: as §1

HOP-62 = settings: Homo sapiens, HOP-62; growth inhibition (GI%), single dose
Protocol: as §1

A549/ATCC = settings: Homo sapiens, A549; growth inhibition (GI%), single dose
Protocol: as §1

UACC-257 = settings: Homo sapiens, UACC-257; growth inhibition (GI%), single dose
Protocol: as §1

SNB-75 = settings: Homo sapiens, SNB-75; growth inhibition (GI%), single dose
Protocol: as §1

SN12C = settings: Homo sapiens, SN12C; growth inhibition (GI%), single dose
Protocol: as §1

CCRF-CEM = settings: Homo sapiens, CCRF-CEM; growth inhibition (GI%), single dose
Protocol: as §1

HOP-92 = settings: Homo sapiens, HOP-92; growth inhibition (GI%), single dose
Protocol: as §1

NCI-H522 = settings: Homo sapiens, NCI-H522; growth inhibition (GI%), single dose
Protocol: as §1

NCI-H23 = settings: Homo sapiens, NCI-H23; growth inhibition (GI%), single dose
Protocol: as §1

HCT-116 = settings: Homo sapiens, HCT-116; growth inhibition (GI%), single dose
Protocol: as §1

U251 = settings: Homo sapiens, U-251; growth inhibition (GI%), single dose
Protocol: as §1

Structure (SMILES): Nc1nc(=S)[nH]c2c1nnn2-c1ccc(S(N)(=O)=O)cc1 [compound 18, 4-(7-amino-5-thioxo-4,5-dihydro-3H-[1,2,3]triazolo[4,5-d]pyrimidin-3-yl)benzenesulfonamide]
- inhibition at 10 µM (NCI-H322M): 2.2%
- inhibition at 10 µM (SK-OV-3): 11.6%
- inhibition at 10 µM (RPMI-8226): 12.3%
- inhibition at 10 µM (UO-31): 13.8%
- inhibition at 10 µM (LOX IMVI): 7.5%
- inhibition at 10 µM (SNB-19): 1.7%
- inhibition at 10 µM (HS 578T): 9.8%
- inhibition at 10 µM (T-47D): 5.8%
- inhibition at 10 µM (MOLT-4): 21.3%
- inhibition at 10 µM (HOP-62): 4.8%
- inhibition at 10 µM (A549/ATCC): 5.1%
- inhibition at 10 µM (UACC-257): 6.1%
- inhibition at 10 µM (SNB-75): 13.9%
- inhibition at 10 µM (SN12C): 1.2%
- inhibition at 10 µM (CCRF-CEM): 17.8%
- inhibition at 10 µM (HOP-92): 10.6%
- inhibition at 10 µM (NCI-H522): 13.7%
- inhibition at 10 µM (NCI-H23): 4.7%

Structure (SMILES): N#Cc1nnn(-c2ccc(S(N)(=O)=O)cc2)c1NS(=O)(=O)c1ccccc1 [compound 11, N-(4-cyano-1-(4-sulfamoylphenyl)-1H-1,2,3-triazol-5-yl)benzenesulfonamide]
- inhibition at 10 µM (NCI-H322M): 2.6%
- inhibition at 10 µM (HCT-116): 2.1%
- inhibition at 10 µM (SK-OV-3): 15.1%
- inhibition at 10 µM (RPMI-8226): 7.1%
- inhibition at 10 µM (UO-31): 13.4%
- inhibition at 10 µM (SNB-19): 2.8%
- inhibition at 10 µM (T-47D): 9.6%
- inhibition at 10 µM (U251): 10.9%
- inhibition at 10 µM (MOLT-4): 11.2%
- inhibition at 10 µM (HOP-62): 4.2%
- inhibition at 10 µM (A549/ATCC): 11.8%
- inhibition at 10 µM (UACC-257): 8.1%
- inhibition at 10 µM (SNB-75): 10.2%
- inhibition at 10 µM (SN12C): 1.6%
- inhibition at 10 µM (CCRF-CEM): 6.7%
- inhibition at 10 µM (HOP-92): 4.2%
- inhibition at 10 µM (NCI-H522): 10.3%
- inhibition at 10 µM (NCI-H23): 4.1%

Structure (SMILES): N#Cc1nnn(-c2ccc(S(N)(=O)=O)cc2)c1N [compound 3, 3]
- inhibition at 10 µM (NCI-H322M): 0%
- inhibition at 10 µM (HCT-116): 7.1%
- inhibition at 10 µM (SK-OV-3): 4.6%
- inhibition at 10 µM (RPMI-8226): 8.5%
- inhibition at 10 µM (UO-31): 14.5%
- inhibition at 10 µM (LOX IMVI): 6.1%
- inhibition at 10 µM (SNB-19): 2.9%
- inhibition at 10 µM (HS 578T): 5.9%
- inhibition at 10 µM (T-47D): 5.1%
- inhibition at 10 µM (U251): 0.6%
- inhibition at 10 µM (MOLT-4): 13.3%
- inhibition at 10 µM (HOP-62): 8%
- inhibition at 10 µM (A549/ATCC): 4.2%
- inhibition at 10 µM (UACC-257): 10.2%
- inhibition at 10 µM (SNB-75): 15%
- inhibition at 10 µM (SN12C): 1.1%
- inhibition at 10 µM (CCRF-CEM): 15.3%
- inhibition at 10 µM (HOP-92): 8.2%
- inhibition at 10 µM (NCI-H522): 9.7%

Structure (SMILES): CN(C)c1ccc(-c2nc3c(nnn3-c3ccc(S(N)(=O)=O)cc3)c(N)c2C#N)cc1 [compound 17, 4-(7-amino-6-cyano-5-(4-(dimethylamino)phenyl)-3H-[1,2,3]triazolo[4,5-b]pyridin-3-yl)benzenesulfonamide]
- inhibition at 10 µM (NCI-H322M): 3.9%
- inhibition at 10 µM (HCT-116): 3.6%
- inhibition at 10 µM (SK-OV-3): 12.3%
- inhibition at 10 µM (RPMI-8226): 12.5%
- inhibition at 10 µM (UO-31): 29.9%
- inhibition at 10 µM (LOX IMVI): 9.6%
- inhibition at 10 µM (SNB-19): 0.8%
- inhibition at 10 µM (HS 578T): 2.9%
- inhibition at 10 µM (T-47D): 5.2%
- inhibition at 10 µM (U251): 12.6%
- inhibition at 10 µM (MOLT-4): 2.3%
- inhibition at 10 µM (HOP-62): 21.7%
- inhibition at 10 µM (A549/ATCC): 16.3%
- inhibition at 10 µM (UACC-257): 8.4%
- inhibition at 10 µM (SNB-75): 21.6%
- inhibition at 10 µM (SN12C): 4.7%
- inhibition at 10 µM (CCRF-CEM): 11.4%
- inhibition at 10 µM (HOP-92): 18.5%
- inhibition at 10 µM (NCI-H522): 14.8%
- inhibition at 10 µM (NCI-H23): 9.8%

Structure (SMILES): CCn1c(=S)[nH]c2c(nnn2-c2ccc(S(N)(=O)=O)cc2)c1=N [compound 20, 4-(6-ethyl-7-imino-5-thioxo-4,5,6,7-tetrahydro-3H-[1,2,3]triazolo[4,5-d]pyrimidin-3-yl)benzenesulfonamide]
- inhibition at 10 µM (NCI-H322M): 3.2%
- inhibition at 10 µM (SK-OV-3): 3.6%
- inhibition at 10 µM (RPMI-8226): 12.1%
- inhibition at 10 µM (UO-31): 7.3%
- inhibition at 10 µM (LOX IMVI): 4.6%
- inhibition at 10 µM (SNB-19): 1.9%
- inhibition at 10 µM (HS 578T): 2.5%
- inhibition at 10 µM (U251): 1.9%
- inhibition at 10 µM (MOLT-4): 9.1%
- inhibition at 10 µM (A549/ATCC): 12.2%
- inhibition at 10 µM (UACC-257): 6.2%
- inhibition at 10 µM (SNB-75): 3.3%
- inhibition at 10 µM (SN12C): 0.9%
- inhibition at 10 µM (CCRF-CEM): 20.9%
- inhibition at 10 µM (HOP-92): 18%
- inhibition at 10 µM (NCI-H522): 7.8%
- inhibition at 10 µM (NCI-H23): 9.4%

Structure (SMILES): N#Cc1c(-c2ccc(Cl)cc2)nc2c(nnn2-c2ccc(S(N)(=O)=O)cc2)c1N [compound 16, 4-(7-amino-5-(4-chlorophenyl)-6-cyano-3H-[1,2,3]triazolo[4,5-b]pyridin-3-yl)benzenesulfonamide]
- inhibition at 10 µM (HCT-116): 4.6%
- inhibition at 10 µM (SK-OV-3): 9.7%
- inhibition at 10 µM (RPMI-8226): 8.4%
- inhibition at 10 µM (UO-31): 25%
- inhibition at 10 µM (LOX IMVI): 20.4%
- inhibition at 10 µM (SNB-19): 3.4%
- inhibition at 10 µM (HS 578T): 12.1%
- inhibition at 10 µM (T-47D): 5.6%
- inhibition at 10 µM (U251): 2.7%
- inhibition at 10 µM (MOLT-4): 17.6%
- inhibition at 10 µM (HOP-62): 7.3%
- inhibition at 10 µM (A549/ATCC): 8.6%
- inhibition at 10 µM (UACC-257): 6.9%
- inhibition at 10 µM (SNB-75): 20%
- inhibition at 10 µM (SN12C): 8.9%
- inhibition at 10 µM (CCRF-CEM): 16.4%
- inhibition at 10 µM (HOP-92): 35.4%
- inhibition at 10 µM (NCI-H522): 9.8%
- inhibition at 10 µM (NCI-H23): 11.2%

Structure (SMILES): N#Cc1nnn(-c2ccc(S(N)(=O)=O)cc2)c1/N=C/c1ccc(Cl)cc1 [compound 9, 9]
- inhibition at 10 µM (HCT-116): 1.2%
- inhibition at 10 µM (SK-OV-3): 9.9%
- inhibition at 10 µM (RPMI-8226): 12.3%
- inhibition at 10 µM (UO-31): 0.3%
- inhibition at 10 µM (T-47D): 11.5%
- inhibition at 10 µM (U251): 4.7%
- inhibition at 10 µM (MOLT-4): 6.9%
- inhibition at 10 µM (HOP-62): 0.1%
- inhibition at 10 µM (A549/ATCC): 16.1%
- inhibition at 10 µM (UACC-257): 2.3%
- inhibition at 10 µM (SNB-75): 2.9%
- inhibition at 10 µM (CCRF-CEM): 15.9%
- inhibition at 10 µM (HOP-92): 12.8%
- inhibition at 10 µM (NCI-H522): 10.5%
